One assay relates to pErk. The following applies: MIA PaCa-2, 2.5 μM LC-2, 6 and 24 hours.
In another assay the target is KRAS^G12C (Homo sapiens, UniProt P01116, G12C). The experiment in a line: KRAS^G12C degradation by immunoblot in MIA PaCa-2 cells. Type of assay: cell-based. Further details: MRTX849-VHL bifunctional compounds engage and degrade endogenous KRAS^G12C in NCI-H2030 cells; endogenous in cells; host or cells: NCI-H2030, NCI-H358, MIA PaCa-2, SW1573, NCI-H23. The settings on record: for KRAS, two-way ANOVA significance vs DMSO: FIG. 10A. Here is the method: NCI-H2030 (CRL-5914), MIA PaCa-2 (CRL-1420), NCI-H23 (CRL-5800), NCI-H358 (CRL-5807), and HCT-116 (CCL-247) cells were obtained from ATCC, expanded immediately, and frozen down. Vials were thawed and used within 20 passages. SW1573 cells were a gift from Arvinas and were handled in the same manner. NCI-H2030, NCI-H23, and NCI-H358 were cultured in RPMI (ATCC30-2001) supplemented with 10% FBS (Biological Industries; cat. no. S1480) and 1% Penicillin-Streptomycin (ThermoFisher; cat. no. 15140122). HCT-116 cells were maintained in high glucose DMEM (ThermoFisher; cat. no. 11965084) supplemented as above. MIA PaCa-2 cells were cultured in high glucose DMEM supplemented with 10% FBS, 2.5% horse serum (ThermoFisher; cat. no. 26050-088; lot 2109875), and 1% Penicillin-Streptomycin. SW1573 cells were maintained in DMEM/F12 Nutrient Mix with GlutaMAX supplement (ThermoFisher; cat. no. 10565018) with 10% FBS and 1% Penicillin-Streptomycin added. DPBS (ThermoFisher; cat. no. 14190250) was used to wash cells and 0.25% Trypsin-EDTA (ThermoFisher; cat. no. […]) was used to detach cells for passaging. […] The VHL ligand was generously provided by Arvinas.
Between 2.5×10^5 and 6.0×10^5 cells were seeded into 6-well plates (Corning; cat. no. 353046). The next day, media was removed and cells were treated with 2.5 μM LC-2 for 1, 2, 4, 8, 12, or 24 hours. […] For 24-hour time course experiments, cells were treated at the indicated times and concurrently lysed in RIPA buffer supplemented as described previously. For longer time course experiments and time courses in which cells were treated with LC-2 or LC-2 Epimer, cells were concurrently treated with either compound, then lysed by scraping in RIPA buffer at the indicated time points.
Cell lysates were clarified at 21000×g for 15 mins at 4° C. Protein levels were quantified using a 50:1 mixture of bicinchoninic acid solution (Millipore Sigma; cat. no. B9643) and 4% (w/v) copper(II) sulfate solution (Millipore Sigma; cat. no. C2284) incubated at 37° C. for 30 mins. Absorbance values at 560 nm were read on an EnVision 2101 Multilabel Reader (PerkinElmer). Proteins were separated using 26 well Criterion TGX precast 4-15% (cat. no. 5671085) or 8-16% (cat. no. 5671105) gradient midi gels. After separation, proteins were transferred to nitrocellulose or PVDF membranes at 76 V for 2 hours at 4° C. Blots were then blocked in 5% milk in tris-buffered saline with Tween-20 (TBST; 20 mM Tris, 150 mM NaCl, 0.02% Tween-20). After blocking, blots were incubated in primary antibody overnight (12-18 hours) at 4° C. or for 2 hours at room temperature with mild agitation at the manufacturer's indicated dilution in either 5% milk or 5% BSA in TBST. Blots were then washed thrice with TBST for 5 mins at room temperature. After washing, blots were incubated with 1:5,000-1:10,000 of donkey anti-rabbit (GE Life Sciences; NA934) or sheep anti-mouse (GE Life Sciences; NA931) secondary antibody diluted in 5% milk for 1 hour at room temperature with mild agitation. Blots were again washed thrice with TBST for 5 mins. Chemiluminescent signal was generated using Amersham ECL Prime Western Blotting Detection Reagant (GE Life Sciences; cat. no. RPN2232) or SuperSignal West Femto Maximum Sensitivity Substrate (ThermoFisher; cat. no. 34095). Images were obtained using a Bio-Rad ChemiDoc Imager. Fluorescent α-tubulin images were collected with the Bio-Rad ChemiDoc Imager using an Alexa488 filter. The primary antibodies used in this work include: KRAS (LSBio; clone 2C1; cat. no. LS-C175665), p-p42/44 MAPK (phospho T202/Y204) (pErk; Cell Signaling Technologies (CST); cat. no. 4370S or 9106S), p42/44 MAPK (Erk1/2; CST; cat. no. 4695S), alpha-tubulin (CST; 2144S), and alpha-tubulin w/AlexaFluor488 (Millipore; cat. no. 16-232).
Band intensities were quantified using BioRad's Image Lab Software.
In general terms: In western blotting, separated proteins are transferred to a membrane and probed.

Molecules are shown by their SMILES.

Method for pErk: Cell lysates were clarified at 21000×g for 15 mins at 4° C. Protein levels were quantified using a 50:1 mixture of bicinchoninic acid solution (Millipore Sigma; cat. no. B9643) and 4% (w/v) copper(II) sulfate solution (Millipore Sigma; cat. no. C2284) incubated at 37° C. for 30 mins. Absorbance values at 560 nm were read on an EnVision 2101 Multilabel Reader (PerkinElmer). Proteins were separated using 26 well Criterion TGX precast 4-15% (cat. no. 5671085) or 8-16% (cat. no. 5671105) gradient midi gels. After separation, proteins were transferred to nitrocellulose or PVDF membranes at 76 V for 2 hours at 4° C. Blots were then blocked in 5% milk in tris-buffered saline with Tween-20 (TBST; 20 mM Tris, 150 mM NaCl, 0.02% Tween-20). […]

As usually defined, the DC50 is the concentration at which degradation of the target reaches its halfway point. Read a low DC50 as a more potent degrader. The term Dmax denotes the greatest extent of degradation seen. For `C=C(F)C(=O)N1CCN(c2nc(OC[C@@H]3CCCN3CCCOCCC(=O)N[C@H](C(=O)N3C[C@H](O)C[C@H]3C(=O)NCc3ccc(-c4scnc4C)cc3)C(C)(C)C)nc3c2CCN(c2cccc4cccc(Cl)c24)C3)C[C@@H]1CC#N` [LC-2, (2S,4R)-1-((S)-2-(3-(3-((S)-2-(((7-(8-chloronaphthalen-1-yl)-4-((S)-3-(cyanomethyl)-4-(2-fluoroacryloyl)piperazin-1-yl)-5,6,7,8-tetrahydropyrido[3,4-d]pyrimidin-2-yl)oxy)methyl)pyrrolidin-1-yl)propoxy)propanamido)-3,3-dimethylbutanoyl)-4-hydroxy-N-(4-(4-methylthiazol-5-yl)benzyl)pyrrolidine-2-carboxamide], the pErk entry in the assay with pErk was “suppressed”. It took 320 ± 80 nM to reach half-maximal degradation on KRAS^G12C (MIA PaCa2, homozygous KRAS^G12C) (DC50). At KRAS^G12C (MIA PaCa-2), this compound had a Dmax greater than 75%. For the same compound, the “duration of KRAS degradation” value at KRAS^G12C (MIA PaCa-2, 2.5 μM) was “sustained up to 72 hours”. The “time to maximal KRAS degradation” value at KRAS^G12C (MIA PaCa-2, 2.5 μM, 6, 24, 48, 72 hours) was no more than 24 h. Further, the “KRAS, two-way ANOVA significance vs DMSO” value is “** (** p < 0.01)” at KRAS^G12C (MIA PaCa-2, 2.5 μM, 6 hours) and “** (** p < 0.01)” at KRAS^G12C (MIA PaCa-2, 2.5 μM, 24 hours).

Values taken from patent publication US20220370416A1, “COMPOUNDS AND METHODS FOR TARGETED DEGRADATION OF KRAS” (Arvinas Operations, Inc., priority 2020, published 2022).
